In one data set the test system is BV-2 microglia cells. Kind of data set: IL-6 and TNFα determination (ELISA). Type of data set: cell-based, murine. The note with it: BV-2 cells, 10 µM; for microglial activating properties of metabolites (IL-6 production): n = 12. How it is done:
BV-2 cells were a kind gift from Prof. Alba Minelli and were grown in RPMI medium supplemented with 10% fetal bovine serum (FBS) and 1% penicillin-streptromycin solution (Life Technologies, Belgium). The cells were cultured in culture flasks (Greiner, Belgium) in an incubator set at 37 °C and 5% CO2. When confluent, cells were detached using a cell scraper and diluted 1:20 approximately every 4 days. Experiments were performed in serum-free DMEM without phenol red.
To investigate the microglia activating properties of the peptide, IL-6 and TNFα levels were determined in cell-free supernatants of BV-2 microglia cells after treatment. BV-2 cells (2 × 10^5 cells/well) were seeded in 24-well plates and treated with peptide for 20 h. ELISA was performed according to the supplier’s protocol (eBioscience, Vienna, Austria). Briefly, after incubation with biotinylated detection antibody, avidin-HRP conjugate and subsequently chromogenic tetramethylbenzidine (TMB) substrate were added. Absorbance was measured at 450 nm and 570 nm using the Multiskan Ascent 354 microplate reader (Thermofisher, Waltham, USA). Concentrations were determined using the standard curve generated using known concentrations of TNFα and IL-6.
In general terms: An ELISA detects its analyte on a solid surface through an enzyme-linked reagent.

Data set [1] is described as follows: Multiple time regression (MTR) analysis, blood-to-brain influx. The data set is classed as in vivo, ICR-CD-1 mice. The note with it: 125I-labelled, mice, linear model, mean ± standard error. The method, then:
Briefly, 0.1 µmol of the lyophilized peptide was dissolved in 100 µL of phosphate buffer (pH 7.4, 25 mM). A Iodo-Gen coated tube (Thermo Scientific, Merelbeke, Belgium) was first of all rinsed with 1 mL of phosphate buffer. Subsequently, 50 µL of sodium iodide solution (1.1 µmol/mL) and 1 mCi of Na^125I solution (Perking Elmer, Zaventem, Belgium) were transferred into this Iodo-Gen coated tube. The oxidation reaction was allowed to proceed for six minutes at room temperature, after which the iodonium solution was transferred to 50 µL of peptide solution (1 mM). The iodination reaction of the peptide was allowed to proceed for another six minutes at room temperature. Finally, the iodinated peptide was purified using a silver filter (Thermo Scientific, Merelbeke, Belgium).
In order to determine whether the peptide could enter the brain, in vivo multiple time regression (MTR) analysis was performed. ICR-CD-1 mice were anesthetized intraperitoneally using a 40% urethane solution (3 g/kg). […] At specified time points after injection (i.e. 1, 3, 5, 10, 12.5 and 15 min, with start and end in duplicate), blood was obtained from the carotid artery followed by decapitation of the mouse. The isolated brain was weighed and radioactivity measured in a gamma counter for 5 min (Wallac Wizard automatic gamma counter, Perkin Elmer, Shelton, CT, USA), as well as from 50 µL serum, which was obtained by centrifuging the collected blood at 10,000g for 15 min at 21 °C. The linear and biphasic modeling of the multiple time regression analysis was performed as previously described.

The next data set can be described thus: kidney homogenate. The note with it: ICR-CD-1 mice, 37 °C, up to 60 min.
A short description of a further data set: liver homogenate. The note with it: ICR-CD-1 mice, 37 °C, up to 60 min.
A short description of the next data set: faeces homogenate. The note with it: ICR-CD-1 mice, 37 °C, up to 60 min.
The next data set can be described thus: serum. The note with it: 37 °C, up to 60 min.
The next data set is described as follows: brain homogenate. The note with it: ICR-CD-1 mice, 37 °C, up to 60 min.

These results are taken from article PMC8140105 (Scientific Reports, 2021).

“Also recorded” adds a separate entry of the source. No end group written: not given here.

DEHSFLP [DEHSFLP]: the “activating properties (IL-6 and TNFα production)” value with BV-2 microglia cells (scrambled control) was “no activating properties”.

In the case of “SDLPF [metabolite of PapRIV formed in serum]”, the “microglial activating properties of metabolites (IL-6 production)” value (shortened to “microglial activating properties”) in the data set with BV-2 microglia cells is reported as “no activating properties”.

The substance Dermorphin [reference compound] came in with a Kin in data set [1] (i.v. (jugular vein), 1–15 min) of 0.35 ± 0.05 µL/g/min. The “Vascular brain distribution volume, V0” value in data set [1] (i.v.) is 15.93 ± 0.64 µL/g.

Turning to “DLPFEH [main metabolite of PapRIV formed in all matrices]”, the “microglial activating properties” value in the data set on BV-2 microglia cells is on record as “to the same extent as the native sequence”.

For the substance “DLPF [metabolite of PapRIV formed in serum]”, in the data set on BV-2 microglia cells, the “microglial activating properties” value is “no activating properties”.

For the substance SDLPFEH, the cleaved bond entry was “D2-L3; also recorded: S1-D2, major” in the data set “kidney homogenate”; “S1-D2, major; also recorded: D2-L3” in the data set “liver homogenate”; “S1-D2, major” in “faeces homogenate”; “S1-D2, major; also recorded: D2-L3; also recorded: F5-E6; also recorded: E6-H7” in the data set “serum”; “S1-D2, major and D2-L” in “brain homogenate”.
